Source: ChEMBL document CHEMBL5154671 (Eur J Med Chem, 2022)
Calls of active or inactive are those of the source.

Tests used:
[1] = target: T1, Peroxisome proliferator-activated receptor alpha (Homo sapiens, UniProt Q07869); experiment: Agonist activity at human PPARalpha measured by dual luciferase reporter gene assay
T1 sequence (Q07869 whole entry): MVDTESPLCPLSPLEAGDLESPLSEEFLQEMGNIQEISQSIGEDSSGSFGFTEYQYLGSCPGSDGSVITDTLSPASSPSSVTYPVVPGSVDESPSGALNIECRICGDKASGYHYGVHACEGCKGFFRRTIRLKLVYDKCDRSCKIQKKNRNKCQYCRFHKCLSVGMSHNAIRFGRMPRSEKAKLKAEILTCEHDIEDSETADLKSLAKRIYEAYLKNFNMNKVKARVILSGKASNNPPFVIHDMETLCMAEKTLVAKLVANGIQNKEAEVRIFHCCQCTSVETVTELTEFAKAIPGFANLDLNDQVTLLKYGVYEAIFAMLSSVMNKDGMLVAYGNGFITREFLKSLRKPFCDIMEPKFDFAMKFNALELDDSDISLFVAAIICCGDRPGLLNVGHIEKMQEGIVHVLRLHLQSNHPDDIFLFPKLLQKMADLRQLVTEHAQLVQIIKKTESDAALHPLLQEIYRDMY

[2] = system: Mus musculus; experiment: Hypolipidemic activity in Triton1339W-induced hyperlipidemic ICR mouse model assessed as reduction in plasma TG level at 80 mg/kg, administered once daily for 5 days; format: functional, organism-based; details: time 5.0 day
[3] = Clearance in rat liver microsomes in presence of NADPH measured by LC/MS analysis; format: ADME, Microsome; details: read-out: CLH
[4] = system: Mus musculus; experiment: Anti-NASH activity in high-fat/high-sugar diet and CCl4-induced nonalcoholic steatohepatitis male C57BL/6 mouse assessed as decrease in lobular inflammation score at 100 mg/kg, po administered for 4 weeks; format: functional, organism-based
[5] = system: Mus musculus; experiment: Protection against liver fibrosis in high-fat/high-sugar diet and CCl4-induced nonalcoholic steatohepatitis male C57BL/6 mouse assessed as decrease in alpha-SMA expression in liver at 100 mg/kg, po administered for 4 weeks; format: functional, organism-based
[6] = system: Mus musculus; experiment: Anti-NASH activity in high-fat/high-sugar diet and CCl4-induced nonalcoholic steatohepatitis male C57BL/6 mouse assessed as decrease in SREBP-1C mRNA expression at 100 mg/kg, po administered for 4 weeks; format: functional, organism-based
[7] = system: Mus musculus; experiment: Anti-inflammatory activity in high-fat/high-sugar diet and CCl4-induced nonalcoholic steatohepatitis male C57BL/6 mouse assessed as decrease in IL-6 mRNA expression at 100 mg/kg, po administered for 4 weeks; format: functional, organism-based
[8] = system: Mus musculus; experiment: Anti-inflammatory activity in high-fat/high-sugar diet and CCl4-induced nonalcoholic steatohepatitis male C57BL/6 mouse assessed as decrease in IL-1beta mRNA expression at 100 mg/kg, po administered for 4 weeks; format: functional, organism-based
[9] = system: Mus musculus; experiment: Anti-fibrotic activity in high-fat/high-sugar diet and CCl4-induced nonalcoholic steatohepatitis male C57BL/6 mouse assessed as decrease in TGF-beta mRNA expression at 100 mg/kg, po administered for 4 weeks; format: functional, organism-based
[10] = system: Mus musculus; experiment: Anti-fibrotic activity in high-fat/high-sugar diet and CCl4-induced nonalcoholic steatohepatitis male C57BL/6 mouse assessed as decrease in TIMP-1 mRNA expression at 100 mg/kg, po administered for 4 weeks; format: functional, organism-based
[11] = system: Mus musculus; experiment: Antioxidant activity in high-fat/high-sugar diet and CCl4-induced nonalcoholic steatohepatitis male C57BL/6 mouse assessed as increase in catalase mRNA expression at 100 mg/kg, po administered for 4 weeks; format: functional, organism-based
[12] = system: Mus musculus; experiment: Antioxidant activity in high-fat/high-sugar diet and CCl4-induced nonalcoholic steatohepatitis male C57BL/6 mouse assessed as increase in GPX1 mRNA expression at 100 mg/kg, po administered for 4 weeks; format: functional, organism-based
[13] = system: Mus musculus; experiment: Antioxidant activity in high-fat/high-sugar diet and CCl4-induced nonalcoholic steatohepatitis male C57BL/6 mouse assessed as increase in SOD1 mRNA expression at 100 mg/kg, po administered for 4 weeks; format: functional, organism-based
[14] = system: Mus musculus; experiment: Protection against CCl4-induced liver fibrosis in male C57BL/6 mouse assessed as decrease in collagen area in liver at 100 mg/kg measured by masson staining; format: functional, organism-based
[15] = Acute toxicity in ICR mouse assessed as change in serum CKMB level at 500 mg/kg, IG; format: organism-based; details: in vivo, po

COc1ccc(/C=C/c2cc(OC)cc(OCc3ccc(OCC(=O)O)c(F)c3)c2)cc1
Non-Toxic: Activity [15]
27.1 µL/min/mg: microsomal CLint [3]
8.5 µM: EC50 [1]
active: Activity [2] | Activity [4] | Activity [5] | Activity [6] | Activity [7] | Activity [8] | Activity [9] | Activity [10] | Activity [11] | Activity [12] | Activity [13] | Activity [14]
